By Kd is commonly meant the constant that tells how readily two partners part at equilibrium.

For data set [1], the target named is α and ω fragments of TEM-1 beta-lactamase (Escherichia coli, UniProt P62593, A182V/V82I). Type of data set: biochemical, E. coli. The procedure: Nitrocefin (Merck, Australia) is a colorimetric substrate of TEM-1 beta-lactamase that changes colour from yellow to red (OD492) following hydrolysis of the β-lactam ring. […] Assays were performed using a 96-well flat bottom cell-culture plate (TPP, Australia). Nitrocefin stock solutions of 200 or 600 μM were prepared in 50 mM NaH2PO4; 150 mM NaCl; 5% DMSO (Sigma, Australia) pH 7. For each 200 μl reaction, 100 μl of the nitrocefin stock was added to 100 μl of enzyme fragments (with or without Ni^2+) in 50 mM NaH2PO4 150 mM NaCl pH 7. Depending on the final signal required, the concentration of enzyme fragments used per well ranged from 40 nM to 200 nM and the final concentration of the Ni^2+ analyte from 100 μM or 200 μM. Assay components were mixed well by pipetting, incubated for 5 minutes at room temperature. Kinetics of the nitrocefin hydrolysis were read at 492 nm using a SpectraMax190 (Molecular Devices, USA).
In an attempt to improve the signal to noise ratio of forced α and ω fragments complementation, the effect of different buffer additives such as solvents, BSA, detergents, protein denaturants and salts were investigated. […] Assays were performed as described herein.
As a low concentration of solvent could partially denature the enzyme fragments, it was investigated whether a small amount of ethanol, isopropanol, methanol, DMSO and acetonitrile would reduce natural fragment complementation and increase the signal to noise ratio. The final concentrations of each solvent tested were 15%, 7.5%, 3.75%, 1.875%, […] and 0%. Kinetics of the complementation assays was read at 492 nm for 30 minutes. The signal/noise ratio was then calculated according to the maximum rate (mOD/min) from SoftmaxPro. […]
Detergent is widely used to reduce protein-protein interaction or ELISA background; using small amount might help preventing the natural fragment complementation by keeping two fragments apart then increased the signal/noise ratio. […] Reading data collecting time was 30 minutes. The signal/noise ratio was then calculated according to the maximum rate (mOD/min) from SoftmaxPro.
To test the effect of protein denaturants on enzyme fragment complementation, nitrocefin activity assays were performed using a matrix of fragment, substrate and NiSO4 concentrations in the presence of urea or guanidine hydrochloride. In preliminary assays, the complementation of 40 nM fragments was tested in concentrations of urea ranging from 2 M to 62.5 mM and in concentrations of GuHCl that ranged from 1M to 31.25 mM. The assay was prepared as follows: 40 nM of each fragment was added to a two-fold dilution series of urea [from 2 M urea 50 mM NaH2PO4 150 mM NaCl pH7 to 62.5 mM urea 50 mM NaH2PO4 150 mM NaCl pH7] or guanidine hydrochloride [from 1 M GuHCl 50 mM NaH2PO4 150 mM NaCl pH7 to 31.25 mM GuHCl 50 mM NaH2PO4 150 mM NaCl pH7] in duplicate. To the first set of wells, NiSO4 was added to a final concentration of 100 μM, whereas the second set contained no NiSO4. The plate was incubated for 5 minutes and the kinetics read at 492 nm using a SpectroMax reader.

The target in a further data set is human IgG (human). Kind of data set: surface plasmon resonance, same conditions as BLω-ProG. For orientation: Surface plasmon resonance follows binding to a sensor surface in real time, without labels.
Data set [2] is classed as physicochemical. The procedure: The pellet from a 250 ml overnight induction was lysed in 25 ml of [6 M GuHCl-100 mM NaH2PO4 10 mM Tris pH 8] followed by a 1-hour incubation at 4° C. with shaking at 100 rpm. To enhance lysis, the suspension was sonicated in an ice bath for 5 cycles of 30 seconds on/30 seconds off using a Branson 250 sonifier. After sonication, the lysate was centrifuged at 12,000×g for 30 min (4° C.) and then passed through a 0.2 μm filter to remove cellular debris.
Recombinant His-tagged proteins were purified using a 1 ml HisTrap HP column (Amersham cat. 17-5247-01) under the control of a DuoFlow chromatography system (BioRad cat. 760-0037). The HisTrap column was equilibrated with 10 column volumes (CV) of 8 M urea 100 mM NaH2PO4 10 mM Tris pH 7.5 at a flow rate of 1 ml/min. Cleared E. coli lysates were then loaded onto the column using a Model EP-1 Econopump (BioRad cat. 731-8142) at 0.5 ml/min. The column was washed with 10 CV of 8 M Urea 100 mM NaH2PO4 10 mM Tris pH 6.3. Bound protein was refolded over a 60 CV gradient from 8 M Urea 100 mM NaH2PO4 10 mM Tris 200 mM L-arginine 100 μM GSSG pH 7.5 to 100 mM NaH2PO4 10 mM Tris 200 mM L-arginine 100 μM GSSG pH 7.5 at 1 ml/min. Histidine-tagged proteins were eluted with 10 CV of 250 mM imidazole 50 mM NaH2PO4 150 mM NaCl pH 8, and analysed by PAGE, western blotting, gel filtration and mass spectroscopy.

Data set [3] can be described thus: FPLC gel filtration (aggregation) of purified fragments. Type of data set: physicochemical. The note with it: Purification Strategy: Denaturing CRF Ni-NTA. An excerpt:
In some cases, following affinity purification of the enzyme fragments, pooled eluates were subjected to size exclusion chromatography using a Superdex200GL column (Amersham cat. 17-5175-01) under the control of a DuoFlow chromatography system (BioRad cat. 760-0037). Gel filtration was used for either polishing of purified enzyme fragments (removal of contaminating proteins) or to determine the proportion of monomeric versus aggregated enzyme fragments after on-column refolding. The protocol was as follows: equilibration with 2 CV of 50 mM NaH2PO4 150 mM NaCl, pH7 at 0.6 ml/min; injection of 250-500 μl of sample at 0.6 ml/min; and isocratic flow of 1 CV of 50 mM NaH2PO4 150 mM NaCl, pH 7 at 0.6 ml/min. See FIG. 7 for exemplary results.
In general terms: SEC sorts molecules by how far they enter the pores of the column.

The test system of a further data set is human IgG. Kind of data set: Surface plasmon resonance binding kinetics for human IgG. The following applies: SPR. From the text: To confirm that the Protein G moiety of BLω-ProG was functional and suitable for testing in our HA format we assessed its binding kinetics for human IgG using surface plasmon resonance. […] A commercially available recombinant protein G, truncated to eliminate binding to human serum albumin, was included as a positive control.

In data set [4] the test system is rabbit hyper-immune serum (anti-HSV-1 peptide). Type of data set: biochemical. The following applies: with BLα-HSV1 (5 nM), hyper-immune serum 1:100.
Where [5] appears, read: Purification Strategy: Denaturing CRF Ni-NTA.

Numbering of substitutions follows the chain as printed. Names may count otherwise. “And” between values parts separate entries of the source, which are not always exact repeats. Equal entries are not always repeated. Where two headings read alike, the source gives them in different places.

`C[S+](C)[O-]` [DMSO]: the “concentration at which optimal signal to noise ratio was achieved” value (“concentration … to noise ratio was achieved” below) in data set [1] turned out to be 15%.
As for `CC#N` [acetonitrile], the “concentration … to noise ratio was achieved” value in data set [1] (solvents and detergents) stood at 3.75%.
For the molecule `CCO` [ethanol], in data set [1], the “concentration … to noise ratio was achieved” value turned out to be 3.75%; the signal/noise ratio was 7.1 and 8.4 and 8.5 and 5.4.
For the molecule `c1c[nH]cn1` [imidazole], the “concentration … to noise ratio was achieved” value in data set [1] (imidazole) was 12.5 mM. Further, the signal/noise ratio in data set [1] (imidazole final concentration 6.25 mM) is 5.2; in data set [1] (imidazole final concentration 12.5 mM), 5.3; in data set [1] (imidazole final concentration 25 mM) it was 3.7; in data set [1] (imidazole final concentration 50 mM), 2.1; in data set [1] (imidazole final concentration 100 mM), 0.8.
With `CC(C)O` [isoproponal, isopropanol], in data set [1] (solvents and detergents), the “concentration … to noise ratio was achieved” value worked out at 3.75%.
Still for that read-out and setting: then `CO` [methanol], with 7.5%.
Turning to `NC(N)=O` [urea], the “concentration … to noise ratio was achieved” value in data set [1] (denaturant) is 0.5 M.
In the case of Triton-X100, the “concentration … to noise ratio was achieved” value in data set [1] is given as 0.3%.
Consider Tween-20, for which the “concentration … to noise ratio was achieved” value in data set [1] (solvents and detergents) is on record as 0.15%.
Consider “commercially available recombinant protein G, truncated to eliminate binding to human serum albumin”, for which the Kd with human IgG (human) was 483 nM.

B1: PB15: rearranged full-length (FL) construct of Beta-lactamase, SEQ ID NO: 21 (protein)
chain: MHMHHHHHHEERFPMMSTFKVLLCGAVLSRIDAGQEQLGRRIHYSQNDLVEYSPVTEKHLTDGMTVRELCSAAITMSDNTAANLLLTTIGGPKELTAFLHNMGDHVTRLDRWEPELNEAIPNDERDTTMPVAMATTLRKLLTGELLTLASRQQLIDWMEADKVAGPLLRSALPAGWFIADKSGAGERGSRGIIAALGPDGKPSRIVVIYTTGSQATMDERNRQIAEIGASLIKHWGSGSGHPETLVKVKDAEDQLGARVGYIELDLNSGKILESFRH
modifications: PB15
On to B1, for which the “Purification (solubility)” value is recorded as “>+++” in data set [2] (setting [5]) and “<+” in data set [2] (Purification Strategy: Native Ni-NTA).

B2: PB15.3: rearranged construct of Beta-lactamase with substitutions M182T, I208T and F230Y, SEQ ID NO: 22 (protein)
chain: B1 chain with M129T, I155T, F177Y
modifications: PB15.3 (M182T, I208T, F230Y)
B2: in data set [2] (setting [5]), the “Purification (solubility)” value is given as “>+++”.

B3: PB11.2: alpha fragment construct containing substitutions V74T and M182T, SEQ ID NO: 6 (protein)
chain: MHPETLVKVKDAEDQLGARVGYIELDLNSGKILESFRPEERFPMMSTFKTLLCGAVLSRIDAGQEQLGRRIHYSQNDLVEYSPVTEKHLTDGMTVRELCSAAITMSDNTAANLLLTTIGGPKELTAFLHNMGDHVTRLDRWEPELNEAIPNDERDTTTPVAMATTLRKLLTGGGGGSHHHHHH
modifications: PB11.2 construct
In the case of B3, the “FPLC (aggregation)” value in data set [3] is on record as “<+”.

B4: BLω-ProG: omega fragment fused via (G4S)3 linker to C2 domain of protein G, SEQ ID NO: 83 (protein)
chain: MHHHHHHGGGGSGSTYKLVINGKTLKGETTTEAVDAATAEKVFKQYANDNGVDGEWTYDDATKTFTVTETSGGGGSGGGGSGGGGSASELLTLASRQQLIDWMEADKVAGPLLRSALPAGWFIADKSGAGERGSRGIIAALGPDGKPSRIVVIYTTGSQATMDERDRQIAEIGASLIKHW
modifications: Protein G subunit omega reporter fragment displaying sequence of BLaProGconstruct
For B4, in the data set on human IgG, the rate of association entry was “slower rate of association than the C2 domain” and the rate of dissociation entry was “slower rate of dissociation”. The Kd on human IgG (read-out: dissociation constant (KD)) was 81 nM. Further, the level of activity result in data set [4] is recorded as “highest level of activity”.
